Patent US20250018046A1, “COMPOUNDS FOR TARGETING DEGRADATION OF IRAK4 PROTEINS” (BIOGEN MA INC, priority 2021, published 2025)

Target: T1, IRAK4 (Homo sapiens, UniProt Q9NWZ3)
T1 construct: knocking-in a HiBiT fusion tag into the C-terminal of the IRAK4 gene in 293T cells; host or cells: 293T cells, knock-in of HiBiT at the endogenous IRAK4 locus
T1 sequence (Q9NWZ3 1-460): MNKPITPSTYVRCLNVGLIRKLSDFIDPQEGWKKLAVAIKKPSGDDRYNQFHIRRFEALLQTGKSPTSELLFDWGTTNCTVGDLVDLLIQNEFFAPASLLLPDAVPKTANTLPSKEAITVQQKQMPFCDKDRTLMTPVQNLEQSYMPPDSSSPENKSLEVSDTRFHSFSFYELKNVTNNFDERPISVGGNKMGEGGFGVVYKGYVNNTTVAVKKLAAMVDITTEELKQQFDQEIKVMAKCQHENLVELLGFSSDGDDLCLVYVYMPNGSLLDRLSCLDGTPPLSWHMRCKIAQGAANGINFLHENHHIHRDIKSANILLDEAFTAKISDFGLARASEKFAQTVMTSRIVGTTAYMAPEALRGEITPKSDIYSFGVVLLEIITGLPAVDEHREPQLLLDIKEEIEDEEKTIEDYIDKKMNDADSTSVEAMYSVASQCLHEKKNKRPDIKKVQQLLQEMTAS
Assay: IRAK4 degradation assay using the HiBiT Method
Type: cell-based
Conditions: 293T cells expressing HiBiT-tagged IRAK4; 6-hour incubation; Nano-Glo HiBiT Lytic Assay luminescence
Summary of the method: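 HEK293T cells with HiBiT knocked into the IRAK4 C-terminus, 10,000 cells per well, treated with an 11-point half-log series […] in duplicate for 6 hours at 37° C., 5% CO2. Remaining IRAK4 quantified by Nano-Glo HiBiT lytic luminescence against DMSO controls.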

SMILES	DC50 [nM]
CC(C)Oc1cc2nc(C3CCN(C(=O)C4CCCC5(CCN(C(=O)c6ccc(OC7CCC(=O)NC7=O)cc6)CC5)O4)CC3)cn2cc1NC(=O)c1cccc(C(F)(F)F)n1 (centres unmarked) [Example 83, N-[2-[1-[9-[4-[(2,6-dioxo-3-piperidyl)oxy]benzoyl]-1-oxa-9-azaspiro[5.5]undecane-2-carbonyl]-4-piperidyl]-7-isopropoxy-imidazo[1,2-a]pyridin-6-yl]-6-(trifluoromethyl) pyridine-2-carboxamide]	100 to 500
CC(C)Oc1cc2nc(C3CCN(CC(=O)N4CCC(c5ccc(NC6CCC(=O)NC6=O)cc5)CC4)CC3)cn2cc1NC(=O)c1cccc(C(F)F)c1 (centres unmarked) [Example 61, 3-(difluoromethyl)-N-(2-(1-(2-(4-(4-((2,6-dioxopiperidin-3-yl)amino)phenyl)piperidin-1-yl)-2-oxoethyl)piperidin-4-yl)-7-isopropoxyimidazo[1,2-a]pyridin-6-yl)benzamide]	10 to 100
CC(C)Oc1cc2nc(C3CCN(CC(=O)N4CCC(c5ccc(C6CCC(=O)NC6=O)cc5)CC4)CC3)cn2cc1NC(=O)c1cccc(C(F)(F)F)n1 (centres unmarked) [Example 29, N-[2-[1-[2-[4-[4-(2,6-dioxo-3-piperidyl)phenyl]-1-piperidyl]-2-oxo-ethyl]-4-piperidyl]-7-isopropoxy-imidazo[1,2-a]pyridin-6-yl]-6-(trifluoromethyl)pyridine-2-carboxamide]	10 to 100
CC(C)Oc1cc2nc(C3CN(C(=O)CN4CCC(c5ccc(C6CCC(=O)NC6=O)cc5)CC4)C3)cn2cc1NC(=O)c1cccc(C(F)(F)F)n1 (centres unmarked) [Example 77, N-[2-[1-[2-[4-[4-(2,6-dioxo-3-piperidyl)phenyl]-1-piperidyl]acetyl]azetidin-3-yl]-7-isopropoxy-imidazo[1,2-a]pyridin-6-yl]-6-(trifluoromethyl)pyridine-2-carboxamide]	100 to 500
CC(C)Oc1cc2nc(C3CN(CCC(=O)N4CCC(c5ccc(NC6CCC(=O)NC6=O)cc5)CC4)C3)cn2cc1NC(=O)c1cccc(C(F)(F)F)n1 (centres unmarked) [Example 34, N-[2-[1-[3-[4-[4-[(2,6-dioxo-3-piperidyl)amino]phenyl]-1-piperidyl]-3-oxo-propyl]azetidin-3-yl]-7-isopropoxy-imidazo[1,2-a]pyridin-6-yl]-6-(trifluoromethyl)pyridine-2-carboxamide]	100 to 500
CC(C)Oc1cc2nc(C3CCN(C(=O)CN4CCC(c5ccc(C6CCC(=O)NC6=O)cc5)CC4)CC3)cn2cc1NC(=O)c1cccc(C(F)(F)F)n1 (centres unmarked) [Example 4, N-[2-[1-[2-[4-[4-(2,6-dioxo-3-piperidyl)phenyl]-1-piperidyl]acetyl]-4-piperidyl]-7-isopropoxy-imidazo[1,2-a]pyridin-6-yl]-6-(trifluoromethyl)pyridine-2-carboxamide]	100 to 500
CC(C)Oc1cc2nc([C@H]3CC[C@H](CN(C)C4CCN(c5ccc(C6CCC(=O)NC6=O)cc5)CC4)CC3)cn2cc1NC(=O)c1cccc(C(F)(F)F)n1 (some centres unmarked) [Example 40, N-[2-[4-[[[1-[4-(2,6-dioxo-3-piperidyl)phenyl]-4-piperidyl]-methyl-amino]methyl]cyclohexyl]-7-isopropoxy-imidazo[1,2-a]pyridin-6-yl]-6-(trifluoromethyl)pyridine-2-carboxamide]	100 to 500
CC(C)Oc1cc2nc([C@H]3CC[C@H](CN(C)C4CCN(c5cccc(C6CCC(=O)NC6=O)c5)CC4)CC3)cn2cc1NC(=O)c1cccc(C(F)(F)F)n1 (some centres unmarked) [Example 43, N-[2-[4-[[[1-[3-(2,6-dioxo-3-piperidyl)phenyl]-4-piperidyl]-methyl-amino]methyl]cyclohexyl]-7-isopropoxy-imidazo[1,2-a]pyridin-6-yl]-6-(trifluoromethyl)pyridine-2-carboxamide]	100 to 500
CC(C)Oc1cn2cc(C3CCN(CC(=O)N4CCC(c5ccc(NC6CCC(=O)NC6=O)cc5)CC4)CC3)nc2cc1NC(=O)c1cccc(C(F)(F)F)n1 (single isomer, unassigned) [Example 14, N-[2-[1-[2-[4-[4-[[2,6-dioxo-3-piperidyl]amino]phenyl]-1-piperidyl]-2-oxo-ethyl]-4-piperidyl]-6-isopropoxy-imidazo[1,2-a]pyridin-7-yl]-6-(trifluoromethyl)pyridine-2-carboxamide]	10 to 100
CC(C)Oc1cc2nc(C3CCN(CCN4CCC(c5ccc(NC6CCC(=O)NC6=O)cc5F)CC4)CC3)cn2cc1NC(=O)c1cccc(C(F)(F)F)n1 (centres unmarked) [Example 67, N-[2-[1-[2-[4-[4-[(2,6-dioxo-3-piperidyl)amino]-2-fluoro-phenyl]-1-piperidyl]ethyl]-4-piperidyl]-7-isopropoxy-imidazo[1,2-a]pyridin-6-yl]-6-(trifluoromethyl)pyridine-2-carboxamide]	100 to 500
CC(C)Oc1cc2nc([C@H]3CC[C@H](CN(C)C4CCN(c5ccc6c(c5)n(C)c(=O)n6C5CCC(=O)NC5=O)CC4)CC3)cn2cc1NC(=O)c1cccc(C(F)(F)F)n1 (some centres unmarked) [Example 45, N-[2-[4-[[[1-[1-(2,6-dioxo-3-piperidyl)-3-methyl-2-oxo-benzimidazol-5-yl]-4-piperidyl]-methyl-amino]methyl]cyclohexyl]-7-isopropoxy-imidazo[1,2-a]pyridin-6-yl]-6-(trifluoromethyl)pyridine-2-carboxamide]	500 to 1000
CC(C)Oc1cc2nc(C3CCN(CCC(=O)N4CCN(c5ccc(OC6CCC(=O)NC6=O)cc5)CC4)CC3)cn2cc1NC(=O)c1cccc(C(F)(F)F)n1 (centres unmarked) [Example 33, N-[2-[1-[3-[4-[4-[(2,6-dioxo-3-piperidyl)oxy]phenyl]piperazin-1-yl]-3-oxo-propyl]-4-piperidyl]-7-isopropoxy-imidazo[1,2-a]pyridin-6-yl]-6-(trifluoromethyl)pyridine-2-carboxamide]	100 to 500
CC(C)Oc1cc2nc(C3CCN(CC(=O)N4CCC(c5cccc(NC6CCC(=O)NC6=O)c5)CC4)CC3)cn2cc1NC(=O)c1cccc(C(F)(F)F)n1 (centres unmarked) [Example 17, N-[2-[1-[2-[4-[3-[(2,6-dioxo-3-piperidyl)amino]phenyl]-1-piperidyl]-2-oxo-ethyl]-4-piperidyl]-7-isopropoxy-imidazo[1,2-a]pyridin-6-yl]-6-(trifluoromethyl)pyridine-2-carboxamide]	10 to 100
CC(C)Oc1cc2nc(C3CCN(CC(=O)N4CCN(Cc5ccc(NC6CCC(=O)NC6=O)cc5)CC4)CC3)cn2cc1NC(=O)c1cccc(C(F)(F)F)n1 (centres unmarked) [Example 20, N-[2-[1-[2-[4-[[4-[(2,6-dioxo-3-piperidyl)amino]phenyl]methyl]piperazin-1-yl]-2-oxo-ethyl]-4-piperidyl]-7-isopropoxy-imidazo[1,2-a]pyridin-6-yl]-6-(trifluoromethyl) pyridine-2-carboxamide]	100 to 500
CC(C)Oc1cc2nc(CCCCCCN3CCC(c4ccc(NC5CCC(=O)NC5=O)cc4)CC3)cn2cc1NC(=O)c1cccc(C(F)(F)F)n1 (centres unmarked) [Example 72, N-[2-[6-[4-[4-[(2,6-dioxo-3-piperidyl)amino]phenyl]-1-piperidyl]hexyl]-7-isopropoxy-imidazo[1,2-a]pyridin-6-yl]-6-(trifluoromethyl)pyridine-2-carboxamide]	100 to 500
CC(C)Oc1cc2nc(C3CCN(C(=O)CN4CCN(c5ccc(C6CCC(=O)NC6=O)cc5)CC4)CC3)cn2cc1NC(=O)c1cccc(C(F)(F)F)n1 (centres unmarked) [Example 5, N-[2-[1-[2-[4-[4-(2,6-dioxo-3-piperidyl)phenyl]piperazin-1-yl]acetyl]-4-piperidyl]-7-isopropoxy-imidazo[1,2-a]pyridin-6-yl]-6-(trifluoromethyl)pyridine-2-carboxamide]	100 to 500
CC(C)Oc1cc2nn(C3CCN(C(=O)CN4CCC(c5ccc(NC6CCC(=O)NC6=O)cc5)CC4)CC3)cc2cc1NC(=O)c1cccc(C(F)(F)F)n1 (centres unmarked) [Example 51, N-[2-[1-[2-[4-[4-[(2,6-dioxo-3-piperidyl)amino]phenyl]-1-piperidyl]acetyl]-4-piperidyl]-6-isopropoxy-indazol-5-yl]-6-(trifluoromethyl)pyridine-2-carboxamide]	10 to 100
CC(C)Oc1cc2nc([C@H]3CC[C@H](CN(C)C4CCN(c5cccc6c5n(C)c(=O)n6C5CCC(=O)NC5=O)CC4)CC3)cn2cc1NC(=O)c1cccc(C(F)(F)F)n1 (some centres unmarked) [Example 42, N-[2-[4-[[[1-[1-(2,6-dioxo-3-piperidyl)-3-methyl-2-oxo-benzimidazol-4-yl]-4-piperidyl]-methyl-amino]methyl]cyclohexyl]-7-isopropoxy-imidazo[1,2-a]pyridin-6-yl]-6-(trifluoromethyl)pyridine-2-carboxamide]	100 to 500
CC(C)Oc1cc2nc(C3CCN(CCC(=O)N4CCC(c5ccc(NC6CCC(=O)NC6=O)cc5F)CC4)CC3)cn2cc1NC(=O)c1cccc(C(F)(F)F)n1 (centres unmarked) [Example 31, N-[2-[1-[3-[4-[4-[(2,6-dioxo-3-piperidyl)amino]-2-fluoro-phenyl]-1-piperidyl]-3-oxo-propyl]-4-piperidyl]-7-isopropoxy-imidazo[1,2-a]pyridin-6-yl]-6-(trifluoromethyl)pyridine-2-carboxamide]	100 to 500
CC(C)Oc1cc2nc(C3CCN(C(=O)CN4CCC(c5cccc(NC6CCC(=O)NC6=O)c5)CC4)CC3)cn2cc1NC(=O)c1cccc(C(F)(F)F)n1 (centres unmarked) [Example 3, N-[2-[1-[2-[4-[3-[(2,6-dioxo-3-piperidyl)amino]phenyl]-1-piperidyl]acetyl]-4-piperidyl]-7-isopropoxy-imidazo[1,2-a]pyridin-6-yl]-6-(trifluoromethyl)pyridine-2-carboxamide]	100 to 500
